Assay results from patent US20030134784A1, “Nucleic acids and corresponding proteins entitled 83P2H3 and CaTrF2E11 useful in treatment and detection of cancer” (priority 2000, published 2003).

Key:
T helper lymphocytes = settings: regardless of HLA type; cited from earlier work
HLA-DR = settings: cited from earlier work
[1] = system: 83P2H3/hCaT-expressing PC3 cell; test: ERK phosphorylation in response to ion channel activators (anti-phospho-ERK Western blotting); type: cell-based, human; settings: hCaT-expressing PC3 cells grown in 0.1% FBS, treated for 5 min
From the text: (§1) FIG. 22. Mediation of ERK phosphorylation by hCaT via a variety of ion channel activators. Control and 83P2H3/hCaT-expressing PC3 cell were compared for their ability to induce ERK phosphorylation in response to ion channel activators known to regulate intracellular calcium levels in several cell types. […] Whole cell lysates were separated by SDS-PAGE and analyzed by Western blotting using an anti-phospho-ERK monoclonal antibody (New England Nuclear, Bedford, Mass.). Anti-ERK overlays were used to evaluate protein loading.
(§2) Many mammalian proteins have been reported to interact with signaling molecules and to participate in regulating signaling pathways (J Neurochem. 2001; 76:217-223). Using immunoprecipitation and Western blotting techniques, proteins are identified that associate with 83P2H3 and mediate signaling events. Several pathways known to play a role in cancer biology can be regulated by several of these genes, including phospholipid pathways such as P13K, AKT, etc, adhesion and migration pathways, including FAK, Rho, Rac-1, etc, as well as mitogenic/survival cascades such as ERK, p38, etc (Cell Growth Differ. 2000,11:279; J Biol Chem. 1999, 274:801; Oncogene 2000, 19:3003, J. Cell Biol. 1997, 138:913.). Using Western blotting techniques, the ability of 83P2H3 to regulate these pathways is examined. Cells expressing 83P2H3 and cells lacking these genes are either left untreated or stimulated with ions, channel activators, or antibodies. Cell lysates are analyzed using anti-phospho-specific antibodies (Cell Signaling, Santa Cruz Biotechnology) in order to detect phosphorylation and regulation of ERK, p38, AKT, P13K, PLC and other signaling molecules.

PC3-neo cells = test: as above; type: cell-based, human; settings: PC3-neo cells grown in 0.1% FBS, treated for 5 min
From the text: as §1, §2

Molecule | Stimulation of the response of T helper lymphocytes (T helper lymphocytes) | Binding to HLA-DR alleles (HLA-DR) | ERK phosphorylation [1] | ERK phosphorylation (PC3-neo cells)
aKXVAAWTLKAAa | stimulate the response of T helper lymphocytes from most individuals | bind to most HLA-DR alleles | – | –
LPA | – | – | induced ERK phosphorylation | –
CCCCCCCCCCCCCC(=O)O[C@@H]1[C@@H](C)[C@@]2(O)[C@@H](C=C(CO)C[C@]3(O)C(=O)C(C)=C[C@@H]23)[C@@H]2C(C)(C)[C@]12OC(C)=O [PMA] | – | – | induced ERK phosphorylation | induced ERK phosphorylation
C[C@H](CCC(=O)O)C[C@H](C)C[C@H](C)C(=O)/C=C(\O)[C@H](C)C[C@H](C)C/C=C/[C@@H](C)[C@@H](O)[C@@H](C)[C@@H](O)C[C@@H]1CC[C@@](C)([C@H]2CC[C@@](C)([C@@H](C)O)O2)O1 [ionomycin] | – | – | induced ERK phosphorylation | –
